In patent US20130310355A1, “LOW TOXICITY TOPICAL ACTIVE AGENT DELIVERY SYSTEM” (YOUNG PHARMACEUTICALS, INC., priority 2009, published 2013):

Assay: Solubilization of retinol in cyclomethicone alone
Type: physicochemical
Details: retinol 0.1-0.2% w/v in cyclomethicone alone
From the text: Volatile organosiloxanes optionally are lightweight carriers that evaporate on application and thus have an elegant, light-weight “feel” on the skin. Volatile organosiloxanes, however, are typically limited in their ability to dissolve low polarity (i.e. usually greater than C7-C8)) organic compounds like retinoids. […] To address this issue vehicles were sought that would be both capable of creating clear solutions of active agent in a volatile organosiloxane carrier, but also have an appropriate evaporation rate in combination with the volatile organosiloxane when placed on the skin so as maintain the light-weight feel on the skin experienced by a user. A vehicle must also not promote unacceptable skin irritation when used at the concentration necessary in the composition.

Appearance of solution: hazy solutions
Compound: CC1=C(/C=C/C(C)=C/C=C/C(C)=C/CO)C(C)(C)CCC1 [retinol]
